Tested on: H9P33, H9P44 and H9P48 cells
Test: Microarray analysis of definitive endoderm on MEFs vs MATRIGEL +/- Wnt-3A (Table VI)
Conditions: log format
Description: Controls for each group included cells plated on […]-coated dishes and cultured in MEF-conditioned medium or cells plated on MEFs and cultured in ES medium. All groups contained three biological replicates and each biological replicate was repeated on two separate gene chips.
Sample preparation, hybridization, and image analysis were performed according to the Affymetrix Human Genome U133 Plus 2.0 Array. Following normalization and a log transformation, data analysis was performed using OmniViz® software (MA) and […] (VizXLabs, WA). Significant differences in gene expression between the samples were evaluated using analysis of variance and an F-test with adjusted P-value (Benjamini and Hochberg correction) of ≤0.05. Only genes with a present call in at least one group were included in the analysis.

[1] = DE treatment in low serum + AA on MATRIGEL
[2] = DE treatment in low serum + AA on MEFS

## Activin A: a member of the TGFβ superfamily; growth factor (R&D Systems) used to differentiate human embryonic stem cells
[1]
  mean normalized intensity: Homo sapiens chorionic somatomammotropin hormone 2 (CSH2), transcript variant 1, mRNA.: 1.124
  mean normalized intensity: Homo sapiens chorionic somatomammotropin hormone 2 (CSH2), transcript variant 4, mRNA.: 0.8122
  mean normalized intensity: Homo sapiens galanin receptor 1 (GALR1), mRNA.: 2.507
  mean normalized intensity: Homo sapiens growth hormone 2 (GH2), transcript variant 2, mRNA.: 0.9226
  mean normalized intensity: Homo sapiens hypothetical protein FLJ20075 (FLJ20075), mRNA.: −0.3592
  mean normalized intensity: Homo sapiens mRNA for SCCA2b, complete cds.: 3.329
  mean normalized intensity: Homo sapiens mRNA; cDNA DKFZp586P1124 (from clone DKFZp586P1124): 0.4856
  mean normalized intensity: Homo sapiens methyl-CpG binding protein MBD2 (MBD2) mRNA, complete cds.: 0.4906
  mean normalized intensity: Homo sapiens tachykinin, precursor 1 (TAC1), transcript variant beta, mRNA.: 2.773
  mean normalized intensity: Homo sapiens testis expressed sequence 14 (TEX14), mRNA.: 3.512
  mean normalized intensity: Homo sapiens, Similar to LIM homeobox protein 8, clone IMAGE: 4839343, mRNA.: −0.06288
  mean normalized intensity: Homo sapiens, Similar to cadherin 6, type 2, K-cadherin (fetal kidney), clone MGC: 1470, mRNA, complete cds.: 2.547
  mean normalized intensity: Homo sapiens, Similar to hypothetical protein FLJ10058, clone MGC: 34305 IMAGE: 5167647, mRNA, complete cds.: 1.698
  mean normalized intensity: Homo sapiens, Similar to hypothetical protein FLJ32001, clone MGC: 39559 IMAGE: 4828136, mRNA, complete cds.: 0.5207
  mean normalized intensity: Homo sapiens, clone IMAGE: 4067166, mRNA: 0.1959
  mean normalized intensity: Homo sapiens, clone IMAGE: 4828836, mRNA.: 0.9729
  mean normalized intensity: Homo sapiens, serine (or cysteine) proteinase inhibitor, clade B (ovalbumin), member 3, clone MGC: 12244, mRNA, complete cds.: 1.969
  mean normalized intensity: Human mRNA upregulated during camptothecin-induced apoptosis of U937 cells.: 0.4945
  mean normalized intensity: Human platelet-derived growth factor alpha-receptor (PDGFRA) mRNA, exons 13-16: 2.445
  mean normalized intensity: KIAA1151 protein: 0.6425
  mean normalized intensity: caldesmon 1: 7.092
  mean normalized intensity: nuclear receptor subfamily 1, group I, member 3: 1.779
DE treatment in low serum + AA on MATRIGEL, gene line r2006
  mean normalized intensity: ESTs: 1.5857
DE treatment in low serum + AA on MATRIGEL, gene line r2025
  mean normalized intensity: ESTs: 1.531
DE treatment in low serum + AA on MATRIGEL, gene line r2032
  mean normalized intensity: ESTs: 0.1336
DE treatment in low serum + AA on MATRIGEL, gene line r2033
  mean normalized intensity: paternally expressed 3: 2.876
DE treatment in low serum + AA on MATRIGEL, gene line r2038
  mean normalized intensity: ESTs: 3.262
DE treatment in low serum + AA on MATRIGEL, gene line r2093
  mean normalized intensity: paternally expressed 3: 2.874
DE treatment in low serum + AA on MATRIGEL, gene line r2134
  mean normalized intensity: ESTs: −1.3795
DE treatment in low serum + AA on MATRIGEL, gene line r2148
  mean normalized intensity: ESTs: 4.454
[2]
  mean normalized intensity: DKFZP566K1924 protein: 1.391
  mean normalized intensity: H. sapiens mRNA for B-HLH DNA binding protein.: 3.451
  mean normalized intensity: Homo sapiens BCL2-interacting killer (apoptosis-inducing) (BIK), mRNA.: 3.562
  mean normalized intensity: Homo sapiens Charot-Leyden crystal protein (CLC), mRNA.: 2.1096
  mean normalized intensity: Homo sapiens HES-related repressor protein 1 HERP1 mRNA, complete cds.: 2.406
  mean normalized intensity: Homo sapiens HSPC156 protein (HSPC156), mRNA.: 1.296
  mean normalized intensity: Homo sapiens KIAA0469 gene product (KIAA0469), mRNA.: 2.565
  mean normalized intensity: Homo sapiens PNAS-123 mRNA, complete cds: 1.847
  mean normalized intensity: Homo sapiens Wilms tumor 1 (WT1), transcript variant D, mRNA.: −2.435
  mean normalized intensity: Homo sapiens cDNA FLJ11398 fis, clone HEMBA1000637.: 1.849
  mean normalized intensity: Homo sapiens cDNA: FLJ22547 fis, clone HSI00356: 2.095
  mean normalized intensity: Homo sapiens cadherin 6, type 2, K-cadherin (fetal kidney) (CDH6), mRNA.: −0.8763
  mean normalized intensity: Homo sapiens chorionic somatomammotropin hormone 2 (CSH2), transcript variant 1, mRNA.: 2.616
  mean normalized intensity: Homo sapiens chorionic somatomammotropin hormone 2 (CSH2), transcript variant 4, mRNA.: 2.218
  mean normalized intensity: Homo sapiens galanin receptor 1 (GALR1), mRNA.: −0.338
  mean normalized intensity: Homo sapiens growth hormone 2 (GH2), transcript variant 2, mRNA.: 1.4679
  mean normalized intensity: Homo sapiens hypothetical protein FLJ20075 (FLJ20075), mRNA.: −0.06528
  mean normalized intensity: Homo sapiens mRNA for SCCA2b, complete cds.: 0.568
  mean normalized intensity: Homo sapiens mRNA; cDNA DKFZp586P1124 (from clone DKFZp586P1124): −3.094
  mean normalized intensity: Homo sapiens methyl-CpG binding protein MBD2 (MBD2) mRNA, complete cds.: −1.702
  mean normalized intensity: Homo sapiens tachykinin, precursor 1 (TAC1), transcript variant beta, mRNA.: 1.483
  mean normalized intensity: Homo sapiens testis expressed sequence 14 (TEX14), mRNA.: −1.3824
  mean normalized intensity: Homo sapiens, Similar to LIM homeobox protein 8, clone IMAGE: 4839343, mRNA.: −1.11
  mean normalized intensity: Homo sapiens, Similar to cadherin 6, type 2, K-cadherin (fetal kidney), clone MGC: 1470, mRNA, complete cds.: 2.134
  mean normalized intensity: Homo sapiens, Similar to hypothetical protein FLJ10058, clone MGC: 34305 IMAGE: 5167647, mRNA, complete cds.: 0.2156
  mean normalized intensity: Homo sapiens, Similar to hypothetical protein FLJ32001, clone MGC: 39559 IMAGE: 4828136, mRNA, complete cds.: 1.269
  mean normalized intensity: Homo sapiens, clone IMAGE: 4067166, mRNA: 0.277
  mean normalized intensity: Homo sapiens, clone IMAGE: 4828836, mRNA.: −1.484
  mean normalized intensity: Homo sapiens, serine (or cysteine) proteinase inhibitor, clade B (ovalbumin), member 3, clone MGC: 12244, mRNA, complete cds.: −1.566
  mean normalized intensity: Human mRNA upregulated during camptothecin-induced apoptosis of U937 cells.: −0.1892
  mean normalized intensity: Human platelet-derived growth factor alpha-receptor (PDGFRA) mRNA, exons 13-16: 2.905
  mean normalized intensity: KIAA1151 protein: 1.009
  mean normalized intensity: caldesmon 1: 5.634
  mean normalized intensity: nuclear receptor subfamily 1, group I, member 3: −0.1968
DE treatment in low serum + AA on MEFS, gene line r2006
  mean normalized intensity: ESTs: −1.3
DE treatment in low serum + AA on MEFS, gene line r2025
  mean normalized intensity: ESTs: 1.373
DE treatment in low serum + AA on MEFS, gene line r2032
  mean normalized intensity: ESTs: −1.566
DE treatment in low serum + AA on MEFS, gene line r2033
  mean normalized intensity: paternally expressed 3: −0.0118
DE treatment in low serum + AA on MEFS, gene line r2038
  mean normalized intensity: ESTs: 1.5682
DE treatment in low serum + AA on MEFS, gene line r2093
  mean normalized intensity: paternally expressed 3: −3.492
DE treatment in low serum + AA on MEFS, gene line r2134
  mean normalized intensity: ESTs: −0.9461
DE treatment in low serum + AA on MEFS, gene line r2148
  mean normalized intensity: ESTs: 5.334

Source: patent US11708562B2, “Differentiation of human embryonic stem cells” (Janssen Biotech, Inc., priority 2006, dated 2023)
